Publication PMC11241769, “Comprehensive Characterization of Phytochemical Composition, Membrane Permeability, and Antiproliferative Activity of Juglans nigra Polyphenols” (International Journal of Molecular Sciences, 2024)
Where two headings read alike, the source gives them in different places.

Legend:
[1] = tested on: MDA-MB 231, A2058, HT-29 and Vero E6 cells; assay: in vitro cytostasis, Alamar Blue assay, cell lines taken together; assay type: cell-based
Protocol: (§1) For the evaluation of the in vitro antiproliferative activity of the compounds, the cell viability was determined by resazurin (Alamar Blue) assay on MDA-MB 231 breast carcinoma, A2058 melanoma, and HT-29 colon carcinoma cell culture. The control wells were treated only with serum-free medium.
(§2) To determine the selectivity, we assessed the compounds on the Vero E6 non-tumorous kidney cells from African green monkeys (C. sabaeus), and their cytostatic activity was determined (Table 3).
(§3) The cytostatic effect of the compounds was studied on tumor cell cultures in vitro. MDA-MB-231 human breast adenocarcinoma cells were cultured in DMEM medium supplemented with 10% FBS, 2 mM L-glutamine, penicillin–streptomycin antibiotics mixture (50 IU/mL, and 50 μg/mL, respectively), 1 mM sodium pyruvate, and 1% non-essential amino acid mixture. A2058 human melanoma cells, and HT-29 colorectal carcinoma cells were cultured in RPMI medium supplemented with 10% FBS, 2 mM L-glutamine, and penicillin–streptomycin antibiotics mixture (50 IU/mL and 50 μg/mL, respectively). Cell lines were generous gifts from Dr. József Tóvári (Department of Experimental Pharmacology, National Institute of Oncology, Budapest, Hungary).
(§4) For the selectivity study, a non-human primate cell culture was used. Vero E6 cells were established from kidney tissue sampled from an African green monkey (C. sabaeus) They originated from a primary culture initiated in March 1962 by Yoshihiro Yasumura at Chiba University in Japan. Vero E6 cells were obtained from the European Collection of Authenticated Cell Cultures (ECACC 85020206) and maintained in DMEM high-glucose (4.5 g/L) medium (Lonza, Basel, Switzerland) containing 10% FBS (Gibco, Thermo Fisher Scientific) and supplemented with 2 mM of L-glutamine (Lonza), 1 mM sodium pyruvate (Merck), and CellCultureGuard (PanReacApplichem, ITW Reagents, Darmstadt, Germany) at 37 °C in a humidified atmosphere of 5% CO2.
(§5) All cell cultures were maintained at 37 °C in a humidified atmosphere with 5% CO2. The cells were grown to confluence and then divided into 96-well tissue culture plates with the initial cell number of 5.0 × 10^3 cells/well. […] Control cells were treated with serum-free medium or DMSO (c = 1.0 v/v %) at the same conditions. After this incubation period, cells were washed twice with serum-free medium, and following that, they were cultured for another 72 h in a 10% serum-containing medium at 37 °C. After that, cell viability was determined using the Alamar Blue assay. Alamar Blue is a non-toxic, resazurin-based dye that living cells reduce to a fluorescent molecule, resorufin [99]. Resazurin sodium salt (Merck, Darmstadt, Germany) was dissolved in PBS at c = 0.15 mg/mL, pH 7.4). A measure of 22 uL of the dye was added to each well and incubated at 37 °C for 3 h until the pink color of the reduced dye appeared. Fluorescence intensity in each well was measured using a Synergy H4 multimode microplate reader (BioTek, Winooski, VT); at λex = 530/30 and λem = 610/10 nm.
(§6) The cytostasis values were expressed in the percentage of untreated control.

[2] = tested on: A2058 human melanoma cells; assay: in vitro cytostatic (antiproliferative) activity, Alamar Blue (resazurin) assay, A2058; assay type: cell-based
Protocol: as §1, §3, §5, §6

[3] = tested on: HT-29 colorectal carcinoma cells; assay: in vitro cytostatic (antiproliferative) activity, Alamar Blue (resazurin) assay, HT-29; assay type: cell-based; conditions: Homo sapiens
Protocol: as §1, §3, §5, §6

[4] = tested on: Vero E6 non-tumorous kidney cells; assay: selectivity study: cytostatic activity on non-tumorous Vero E6 cells, Alamar Blue assay; assay type: cell-based, African green monkey (C. sabaeus)
Protocol: as §2, §4, §5, §6

[5] = tested on: MDA-MB-231 human breast adenocarcinoma cells; assay: in vitro cytostatic (antiproliferative) activity, Alamar Blue (resazurin) assay, MDA-MB 231; assay type: cell-based
Protocol: as §1, §3, §5, §6

[6] = A2058, read-out: IC50 (µM) A2058
[7] = HT-29, read-out: IC50 (µM) HT-29
[8] = Chlorocebus sabaeus, Vero C1008, read-out: IC50 (µM) VERO E6 Non Tumorous
[9] = MDA-MB-231, read-out: IC50 (µM) MDA-MB 231
[10] = in vitro cytostatic activity, Alamar Blue (resazurin) assay, A2058 melanoma cell culture, read-out: IC50 (µM) A2058
[11] = in vitro cytostatic activity, Alamar Blue (resazurin) assay, HT-29 colon carcinoma cell culture, read-out: IC50 (µM) HT-29
[12] = Chlorocebus sabaeus, Vero C1008, in vitro cytostatic activity, Alamar Blue assay, Vero E6 non-tumorous kidney cells, read-out: IC50 (µM) VERO E6 Non Tumorous
[13] = in vitro cytostatic activity, Alamar Blue (resazurin) assay, MDA-MB 231 breast carcinoma cell culture, read-out: IC50 (µM) MDA-MB 231

For `COc1cccc2c1C(=O)c1c(O)c3c(c(O)c1C2=O)C[C@@](O)(C(C)=O)C[C@@H]3O[C@H]1C[C@H](N)[C@H](O)[C@H](C)O1` [Daunomycin, daunomycin, reference compound], the IC50 ([1]; read-out: IC50 value (50% inhibition) in all cell lines) was 0.2 to 1.1 µM, the IC50 [2, 6] was 0.9 ± 0.1 µM and the IC50 [3, 7] was 0.2 ± 0.05 µM. It also gave an IC50 [4, 8] of 1.1 ± 0.05 µM and an IC50 [5, 9] of 0.7 ± 0.1 µM.

`CC1OC(Oc2c(-c3cc(O)c(O)c(O)c3)oc3cc(O)cc(O)c3c2=O)C(O)C(O)C1O` (stereo not shown) [myricetin-3-O-rhamnoside (86)] was tested, and the IC50 [2, 10] was over 100 µM, the IC50 [3, 11] was over 100 µM and the IC50 [4, 12] was 3.7 ± 0.7 µM. The IC50 [5, 13] was over 100 µM.

Molecule `CC1OC(Oc2c(-c3ccc(O)c(O)c3)oc3cc(O)cc(O)c3c2=O)C(O)C(O)C1O` (stereo not shown) [quercetin-3-O-rhamnoside (106)] has an IC50 [2, 6] of over 100 µM, an IC50 [3, 7] of over 100 µM and an IC50 [4, 8] of 15.9 ± 0.7 µM. For the same molecule, the IC50 [5, 9] was over 100 µM.

`O=c1c(OC2OCC(O)C(O)C2O)c(-c2ccc(O)c(O)c2)oc2cc(O)cc(O)c12` (stereo not shown) [quercetin-3-O-xyloside (74)] gave an IC50 [2, 10] of over 100 µM, an IC50 [3, 11] of over 100 µM and an IC50 [4, 12] of over 100 µM. It also gave an IC50 [5, 13] of over 100 µM.

In the case of “myricetin-3-O-rhamnoside (myricitrin) [Compound 86]”, the “effect on the tumor cell lines” value ([1]; tumor cell lines (MDA-MB 231, A2058, HT-29)) is reported as “no effect” and the IC50 ([4]; Vero E6 non-tumorous kidney cells, selectivity, read-out: IC50 (cytostatic activity) on the Vero E6 cells) is reported as 3.7 µM.
